Legend:
Assay in all cases: relative viability (nuclei count vs DMSO), 5 days (fraction); higher = more cells survive
JZL-184 + Bortezomib = compound: C1CN(CCC1C(C2=CC3=C(C=C2)OCO3)(C4=CC5=C(C=C4)OCO5)O)C(=O)OC6=CC=C(C=C6)[N+](=O)[O-] [JZL-184] + CC(C)C[C@H](NC(=O)[C@H](Cc1ccccc1)NC(=O)c1cnccn1)B(O)O [Bortezomib] (partner 0.002 µM)
In short: (§1)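 Lung cancer cell lines in 1536-well plates were dosed by pin tool the day after seeding, either with one drug alone or with a fixed anchor-drug dose plus five library-drug doses (not always all listed) in √10 steps. After 5 days, cells were fixed and their nuclei stained in one step (final 0.05% Triton X-100, 1% formaldehyde, 1 ug/ml Hoechst), then counted on 4× images. Relative viability is the nuclei count in treated wells divided by that in vehicle wells. Values are medians of duplicate plates.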

JZL-184 + Luminespib = compound: C1CN(CCC1C(C2=CC3=C(C=C2)OCO3)(C4=CC5=C(C=C4)OCO5)O)C(=O)OC6=CC=C(C=C6)[N+](=O)[O-] [JZL-184] + CCNC(=O)c1noc(-c2cc(C(C)C)c(O)cc2O)c1-c1ccc(CN2CCOCC2)cc1 [Luminespib] (partner 0.01 µM)
In short: as §1

JZL-184 + Foretinib = compound: C1CN(CCC1C(C2=CC3=C(C=C2)OCO3)(C4=CC5=C(C=C4)OCO5)O)C(=O)OC6=CC=C(C=C6)[N+](=O)[O-] [JZL-184] + COc1cc2c(Oc3ccc(NC(=O)C4(C(=O)Nc5ccc(F)cc5)CC4)cc3F)ccnc2cc1OCCCN1CCOCC1 [Foretinib] (partner 0.25 µM)
In short: as §1

JZL-184 + Tozasertib = compound: C1CN(CCC1C(C2=CC3=C(C=C2)OCO3)(C4=CC5=C(C=C4)OCO5)O)C(=O)OC6=CC=C(C=C6)[N+](=O)[O-] [JZL-184] + Cc1cc(Nc2cc(N3CCN(C)CC3)nc(Sc3ccc(NC(=O)C4CC4)cc3)n2)n[nH]1 [Tozasertib] (partner 0.1 µM)
In short: as §1

JZL-184 + Vorinostat = compound: C1CN(CCC1C(C2=CC3=C(C=C2)OCO3)(C4=CC5=C(C=C4)OCO5)O)C(=O)OC6=CC=C(C=C6)[N+](=O)[O-] [JZL-184] + O=C(CCCCCCC(=O)Nc1ccccc1)NO [Vorinostat] (partner 1 µM)
In short: as §1

Row | Cell Line | relative viability (JZL-184 + Bortezomib; first compound 0.04 µM) | relative viability (JZL-184 + Bortezomib; first compound 0.4 µM) | relative viability (JZL-184 + Bortezomib; first compound 1.265 µM) | relative viability (JZL-184 + Bortezomib; first compound 4 µM) | relative viability (JZL-184 + Luminespib; first compound 0.04 µM) | relative viability (JZL-184 + Luminespib; first compound 0.4 µM) | relative viability (JZL-184 + Luminespib; first compound 1.265 µM) | relative viability (JZL-184 + Luminespib; first compound 4 µM) | relative viability (JZL-184 + Foretinib; first compound 0.04 µM) | relative viability (JZL-184 + Foretinib; first compound 0.4 µM) | relative viability (JZL-184 + Foretinib; first compound 1.265 µM) | relative viability (JZL-184 + Foretinib; first compound 4 µM) | relative viability (JZL-184 + Tozasertib; first compound 0.04 µM) | relative viability (JZL-184 + Tozasertib; first compound 0.4 µM) | relative viability (JZL-184 + Tozasertib; first compound 1.265 µM) | relative viability (JZL-184 + Tozasertib; first compound 4 µM) | relative viability (JZL-184 + Vorinostat; first compound 0.4 µM) | relative viability (JZL-184 + Vorinostat; first compound 1.265 µM) | relative viability (JZL-184 + Vorinostat; first compound 4 µM) | relative viability (JZL-184 + Vorinostat; first compound 0.04 µM)
1 | NCI-H2347 | 1.12 | 0.717 | 1.05 | 0.906 | 0.321 | 0.553 | 0.497 | 0.587 | 0.771 | 0.884 | 1.13 | 1.3 | 0.447 | 0.442 | 0.551 | 0.662 | 0.494 | 0.661 | 0.616 | 
2 | NCI-H2405 | 1.05 | 0.943 | 1.06 | 0.769 | 0.598 | 0.764 | 0.796 | 0.734 | 1.08 | 1.06 | 1.13 | 1 | 0.759 | 0.729 | 0.815 | 0.732 | 0.83 | 1.3 | 0.968 | 1.15
3 | NCI-H3122 | 1.01 | 0.93 | 0.982 | 1.03 | 0.0989 | 0.0869 | 0.0901 | 0.11 | 1.03 | 0.954 | 0.944 | 0.983 | 0.432 | 0.393 | 0.453 | 0.396 | 0.988 | 0.965 | 1.06 | 1.05
4 | PC-3 [JPC-3] | 0.988 | 0.895 | 0.835 | 0.801 | 0.793 | 0.721 | 0.811 | 0.615 | 1.08 | 0.975 | 1.09 | 0.913 | 1.01 | 0.827 | 0.895 | 0.865 | 0.761 | 1.14 | 0.736 | 0.873
5 | PC-14 | 0.808 | 0.972 | 0.781 | 0.77 | 0.119 | 0.137 | 0.146 | 0.287 | 1.02 | 0.927 | 0.954 | 0.946 | 0.647 | 0.623 | 0.631 | 0.485 | 0.722 | 0.758 | 0.661 | 0.848
6 | RERF-LC-KJ | 1.15 | 0.96 | 1.11 | 1.04 | 1.34 | 1.37 | 1.31 | 1.2 | 0.933 | 0.9 | 0.876 | 0.781 | 0.499 | 0.37 | 0.453 | 0.436 | 0.642 | 0.699 | 0.614 | 0.707
7 | SK-LU-1 | 0.929 | 1.06 | 1.29 | 1.16 | 0.312 | 0.201 | 0.215 | 0.2 | 0.909 | 0.77 | 0.919 | 0.722 | 0.372 | 0.328 | 0.329 | 0.338 | 0.744 | 0.894 | 0.717 | 0.795
8 | SW 1573 | 1.14 | 0.935 | 1.08 | 0.976 | 0.224 | 0.276 | 0.251 | 0.222 | 1.06 | 0.791 | 0.94 | 0.829 | 0.175 | 0.143 | 0.229 | 0.176 | 0.64 | 0.788 | 0.551 | 0.824
9 | UMC-11 | 0.79 | 0.723 | 0.571 | 0.673 | 1.26 | 0.992 | 1.05 | 1.04 | 1.09 | 0.883 | 1.11 | 1.09 | 0.177 | 0.21 | 0.206 | 0.196 | 0.415 | 0.381 | 0.304 | 0.405

Source: the supplement of paper PMC10307832
